Source: US10100045B2, “3-aryl-2H-pyrazolo[4,3-b]pyridine compounds and their use as AMPA receptor modulators” (Janssen Pharmaceutica NV, priority 2016, dated 2018)

target: GluA1o-γ8 (GRIA1o-CACNG8 fusion construct; TARP γ8 dependent AMPA receptor) (Homo sapiens (Human), UniProt P42261+Q8WXS5); assay: Calcium flux assay (FLIPR), inhibition of glutamate response of GluA1o-γ8 channel; assay type: cell-based; conditions: HEK293 cells stably expressing GRIA1o-CACNG8 fusion; 15 μM glutamate; negative log of the IC50 in molar
Sequence (P42261 other isoform, or with tags, fused parts or gaps): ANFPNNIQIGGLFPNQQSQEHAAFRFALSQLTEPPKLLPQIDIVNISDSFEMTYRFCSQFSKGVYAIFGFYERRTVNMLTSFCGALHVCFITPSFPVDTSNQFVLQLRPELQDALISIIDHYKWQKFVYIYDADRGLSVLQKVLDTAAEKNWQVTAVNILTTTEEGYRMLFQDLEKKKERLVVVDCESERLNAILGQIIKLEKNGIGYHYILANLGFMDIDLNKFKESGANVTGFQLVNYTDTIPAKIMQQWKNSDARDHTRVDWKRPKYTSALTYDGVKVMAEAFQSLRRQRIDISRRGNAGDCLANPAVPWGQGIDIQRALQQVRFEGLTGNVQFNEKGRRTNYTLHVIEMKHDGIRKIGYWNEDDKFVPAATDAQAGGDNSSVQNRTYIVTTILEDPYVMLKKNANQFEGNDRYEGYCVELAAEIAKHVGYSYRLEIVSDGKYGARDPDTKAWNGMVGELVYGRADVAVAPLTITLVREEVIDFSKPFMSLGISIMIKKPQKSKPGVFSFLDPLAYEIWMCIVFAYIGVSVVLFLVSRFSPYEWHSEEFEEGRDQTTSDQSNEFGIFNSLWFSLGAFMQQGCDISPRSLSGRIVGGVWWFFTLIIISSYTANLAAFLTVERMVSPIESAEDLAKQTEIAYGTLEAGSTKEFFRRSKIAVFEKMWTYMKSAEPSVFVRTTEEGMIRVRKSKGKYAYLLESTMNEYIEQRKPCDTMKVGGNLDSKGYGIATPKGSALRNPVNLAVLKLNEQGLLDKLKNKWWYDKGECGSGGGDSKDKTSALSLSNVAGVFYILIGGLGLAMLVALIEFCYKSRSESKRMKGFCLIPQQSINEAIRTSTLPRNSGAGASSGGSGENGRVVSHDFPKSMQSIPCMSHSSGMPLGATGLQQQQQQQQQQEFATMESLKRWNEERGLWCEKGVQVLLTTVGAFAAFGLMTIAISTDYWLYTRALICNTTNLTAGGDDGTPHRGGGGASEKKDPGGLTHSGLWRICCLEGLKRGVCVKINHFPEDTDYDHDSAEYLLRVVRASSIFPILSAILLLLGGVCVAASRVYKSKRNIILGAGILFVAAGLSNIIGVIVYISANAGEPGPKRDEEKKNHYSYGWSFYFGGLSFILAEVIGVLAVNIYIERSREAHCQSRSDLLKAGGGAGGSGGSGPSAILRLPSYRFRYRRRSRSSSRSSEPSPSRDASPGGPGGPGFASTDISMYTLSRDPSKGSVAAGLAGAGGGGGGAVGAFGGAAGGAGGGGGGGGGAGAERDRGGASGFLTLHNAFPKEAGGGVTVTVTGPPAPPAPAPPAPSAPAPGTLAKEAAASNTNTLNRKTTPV
From the text: This assay was used to test compounds for their ability to inhibit TARP γ8 dependent AMPA receptor activity. The AMPA receptor is a non-selective cation channel activated by glutamate. Ionotropic glutamate receptors normally desensitize too rapidly to allow detectable calcium influx in a FLIPR assay (Strange et al. (2006). “Functional characterisation of homomeric ionotropic glutamate receptors GluR1-GluR6 in a fluorescence-based high throughput screening assay.” Comb Chem High Throughput Screen 9(2): 147-158). But, this desensitization is incomplete, and a substantial steady-state current remains in the sustained presence of glutamate (Cho et al. (2007). “Two families of TARP isoforms that have distinct effects on the kinetic properties of AMPA receptors and synaptic currents.” Neuron 55(6): 890-904). An in vitro assay was used to determine the potency of test compounds as inhibitors of the glutamate response of the channel formed by GluA1o-γ8. To ensure a 1:1 stoichiometry of GluA1o and γ8 subunits in the expressed channel, a fusion of the cDNAs for GRIA1o and CACNG8 was used. Following Shi et al (2009) “The stoichiometry of AMPA receptors and TARPs varies by neuronal cell type.” Neuron 62(5): 633-640), the C-terminus of the cDNA for GRIA1o was fused to the N-terminus of the cDNA for γ8. The linker sequence was QQQQQQQQQQEFAT. Channels expressed with this construct appear to have similar properties to channels formed by co-expression of GRIA1o with an excess of CACNG8 (Shi et al. 2009). A clonal cell line in HEK293 cells stably expressing this construct, with a geneticin selection marker, was generated for use in this assay.
Cell expressing the GRIA1o-CACNG8 fusion construct were grown in a monolayer in 96- or 384-well microtiter plates. They were washed with assay buffer (135 mM NaCl, 4 mM KCl, 3 mM CaCl2, 1 mM MgCl2, 5 mM glucose, 10 mM HEPES, pH 7.4, 300 mOs) using a Biotek EL405 plate washer. The cells were then loaded with a calcium-sensitive dye (Calcium-5 or Calcium-6, Molecular Devices) and the test compounds at a range of concentrations. Calcium flux following the addition of 15 μM glutamate was monitored using a Molecular Devices FLIPR Tetra. The fluorescence in each well was normalized to the fluorescence of negative and positive control wells. The negative control wells had no added compounds, and the positive control wells had been incubated with 10 μM CP465022 (a non-subtype-selective AMPA receptor antagonist) (Lazzaro et al. (2002). “Functional characterization of CP-465,022, a selective, noncompetitive AMPA receptor antagonist.” Neuropharmacology 42(2): 143-153). The responses to glutamate as functions of the test compound concentrations were fitted to a four-parameter logistic function. The fitted parameter corresponding to the midpoint was taken to be the potency of inhibition of the compound. The data in Table 3 below illustrates the observed potentcy for the compounds described herein. pIC50 refers to the negative log of the IC50 in molar.

pIC50 | SMILES
6.9 | Cc1cc(-c2c3nccc(C(F)F)c3nn2C(C)C)cc2cn[nH]c12 [Example 38, 7-(Difluoromethyl)-2-isopropyl-3-(7-methyl-1H-indazol-5-yl)pyrazolo[4,3-b]pyridine]
9.8 | Cc1cc(-c2c3nc(C(F)F)cc(C(F)F)c3nn2C(C)C)cc2cn[nH]c12 [Example 40, 5,7-Bis(difluoromethyl)-2-isopropyl-3-(7-methyl-1H-indazol-5-yl)pyrazolo[4,3-b]pyridine]

Second part, the molecule before the results:

SMILES | pIC50
Cc1cc(-c2c3nc(C(F)F)ccc3nn2C(C)C)cc2cn[nH]c12 [Example 34, 5-(Difluoromethyl)-2-isopropyl-3-(7-methyl-1H-indazol-5-yl)-2H-pyrazolo[4,3-b]pyridine] | 10.0
CC(C)n1nc2ccc(C(F)F)nc2c1-c1cc(Cl)c2c(c1)CC(=O)N2 [Example 36, 7-Chloro-5-(5-(difluoromethyl)-2-isopropyl-2H-pyrazolo[4,3-b]pyridin-3-yl)indolin-2-one] | 9.4
CC(C)n1nc2cccnc2c1-c1cc(Cl)c2[nH]ncc2c1 [Example 39, 3-(7-Chloro-1H-indazol-5-yl)-2-isopropyl-pyrazolo[4,3-b]pyridine] | 7.2
